According to patent publication US10308649B2, “Compounds and methods to suppress autoimmune response” (Oregon State University, priority 2014, dated 2019):

What was measured:
[1] = Serum pharmacokinetics after i.p. injection; settings: mouse
Method: FIGS. 13a and 13b show the pharmacokinetics of AHRL1. To determine the half-life of AHRL1, mice were treated with a single intraperitoneal injection of the chemical, and serum concentrations were measured over time by mass spectrometry. In FIG. 13a, C57BL/6 mice were given 10 mg/kg AHRL1 by i.p. injection. Blood was collected at the indicated times by cardiac puncture. The blood serum was processed to remove protein and the samples were analyzed by QTRAP 4000 LC/MS/MS. The blood serum concentration of AHRL1 was determined from a standard curve based on known concentrations of AHRL1.
Based on the model, the serum half-life of AHRL1 is approximately 2 hours. Additional kinetic parameters include the absorption rate constant (ka) which was 1.2 h^−1. […] The area under the concentration-time curve (AUC0-∞) was 102.5 mg/L*h.

AhR [2] = test: XRE-luciferase reporter gene in Hepa-1 cells expressing endogenous AhR; type: cell-based, mouse; settings: for XRE-luciferase reporter activity, in words: 16 hours after treating; for fold activation of AhR (reporter gene activity): 10 nM, 12 hours
Method: FIGS. 9a-9f illustrate activity studies for 10-Cl-BBQ, 11-Cl-BBQ, and combinations thereof. Hepa-1 cells expressing endogenous AhR were transfected with a xenobiotic responsive element (XRE)-luciferase reporter gene. […] The activity was measured 16 hours after treating the cells with the various concentrations.
The reporter gene activity was measured after 12 hours of treatment with TCDD at a concentration of 1 nM or with the indicated concentrations of AHRL1.
Hepa-1 cells expressing endogenous AhR were transfected with a XRE-luciferase reporter gene. […] The mean luciferase activity is shown with SEM.

donor CD4+ T cells = test: Acute graft versus host model: Treg phenotype of alloactivated donor CD4+ T cells; type: in vivo, mouse; settings: 10 mg/kg day 0 and day 1, day 2, p-value=0.05
Method: FIGS. 14a-14i show AHRL1 induces an AhR-dependent Treg phenotype by a mechanism that is mediated by the AhR in donor CD4+ T cells. The AhR-induced Tregs were identified as the CD4+CD25+CTLA-4+CD62L^low population of T cells. To determine if AHRL1 induced changes in donor CD4+ T cells, AHRL1 was compared with TCDD and the vehicle. On day 0, B6D2F1 host mice in groups of 5 were injected with CFSE-labeled C57BL/6 (H-2^b/b) T cells and given 15 mg/kg of AHRL1, 15 μg/kg of TCDD, or vehicle by i.p. injection. At 24 hours, an additional dose of 7 mg/kg of AHRL1 or vehicle was given. Mice that were treated with TCDD at the time of donor cell transfer were used as positive controls. Splenocytes were isolated on day 2 for phenotypic analysis of the alloresponsive (CFSE-diluted) donor CD4+ T cells. Splenocytes were harvested from the host mice and the CD4+ T cells were identified by flow cytometry.
On day 0, B6D2F1 host mice in groups of 5 were injected with donor T cells obtained from AhR^+/+ or AhR-deficient (AhR^−/−) C57BL/6 mice. Host mice were treated with 2 mg/kg of AHRL1 or vehicle immediately following donor cell transfer and again at 24 hours. […] Thus, the AhR in the CD4+ T cell is the primary target driving the AhR-Treg phenotype.
On day 0, B6D2F1 host mice in groups of 3-5 were injected with C57BL/6 T cells. Mice were immediately treated with 0 mg/kg, 0.4 mg/kg, 2 mg/kg, or 10 mg/kg of AHRL1 and again on day 1. On day 2, expression of markers associated with the AhR-Treg phenotype increased as the dose of AHRL1 increased. Further, dosing generally correlated with degree of activation of AhR as reflected by CYP1A1, CYP1B1, and AHRR expression in lymph nodes from the same mice. The asterisk (*) indicates a p-value of 0.05 relative to vehicle treatment.
FIGS. 16c and 16d show expression of phenotypic markers, CD25+ICOS+CD62L^low and CD25+CTLA-4+, associated with AhR-Tregs in mice treated with AHRL1. Host mice were treated with 10 mg/kg of AHRL1, 11-Cl-BBQ analog, or vehicle on day 0 and day 1 following donor cell transfer. On day 2, the alloactivated CD4+ donor T cells were identified based on CFSE dilution. The percentage of donor cells in each group expressing the Treg markers were derived from flow histograms. The data represents mean±SEM of 5 mice per treatment. […] Analog 1 is statistically different from AHRL1 and analog 4 (p-value=0.05). […], analog 1, and analog 4 are shown to be AhR ligands that are capable of inducing Tregs in vivo. Accordingly, analogs 1 and 4 are expected to have a similar therapeutic effect in a subject as AHRL1 by suppressing an autoimmune response. Additionally, analog 6, analog 7, and other analogs of 11-Cl-BBQ, that are found to be active AhR ligands using the disclosed screening method, are expected to induce Tregs and suppress CTL to provide treatment and/or prevention of immune-mediated diseases.

AhR [3] = target: T1, AhR (Mus musculus, UniProt P30561); test: Competitive inhibition of [3H] 3-MC binding to AhR; settings: for fold lower / less active than TCDD: relative to IC50 of TCDD
T1 sequence (P30561 10-848): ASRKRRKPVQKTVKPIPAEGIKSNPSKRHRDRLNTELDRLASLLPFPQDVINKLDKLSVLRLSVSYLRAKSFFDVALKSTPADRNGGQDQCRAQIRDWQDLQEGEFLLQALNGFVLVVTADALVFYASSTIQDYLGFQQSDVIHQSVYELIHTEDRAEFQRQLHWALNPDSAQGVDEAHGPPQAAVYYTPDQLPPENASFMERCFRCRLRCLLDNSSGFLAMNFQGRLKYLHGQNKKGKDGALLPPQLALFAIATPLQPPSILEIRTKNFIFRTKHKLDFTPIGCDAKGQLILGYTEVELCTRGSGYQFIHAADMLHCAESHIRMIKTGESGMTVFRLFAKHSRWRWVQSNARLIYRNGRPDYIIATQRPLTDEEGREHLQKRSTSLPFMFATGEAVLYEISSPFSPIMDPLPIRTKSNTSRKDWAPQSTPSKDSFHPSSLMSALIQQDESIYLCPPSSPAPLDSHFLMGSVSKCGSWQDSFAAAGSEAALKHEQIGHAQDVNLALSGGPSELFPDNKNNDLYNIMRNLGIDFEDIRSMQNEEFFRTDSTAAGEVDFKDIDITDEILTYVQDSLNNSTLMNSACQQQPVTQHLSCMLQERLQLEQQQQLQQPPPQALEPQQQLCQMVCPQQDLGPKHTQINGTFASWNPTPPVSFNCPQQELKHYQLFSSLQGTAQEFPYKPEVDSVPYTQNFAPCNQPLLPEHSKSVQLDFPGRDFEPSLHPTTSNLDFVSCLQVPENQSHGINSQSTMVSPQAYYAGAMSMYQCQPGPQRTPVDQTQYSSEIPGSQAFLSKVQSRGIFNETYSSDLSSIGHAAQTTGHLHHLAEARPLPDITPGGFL
From the text: 3-MC binding to AhR. […] 3-methylcholanthrene (3-MC) to AhR.

Structure (SMILES)	in vivo serum half-life [1]	XRE-luciferase reporter activity, in words (AhR [2])	expression of CD25+CTLA-4+ on alloactivated CD4+ donor T cells (donor CD4+ T cells)	expression of CD25+ICOS+CD62Llow on alloactivated CD4+ donor T cells (donor CD4+ T cells)	IC50 (AhR [3])	fold activation of AhR (reporter gene activity) (AhR [2])	IC50, competitive inhibition of [3H] 3-MC binding to AhR (AhR [3])	fold lower / less active than TCDD (AhR [3])
O=c1c2cccc3cccc(c32)c2nc3ccc(Cl)cc3n12 [10-Cl-BBQ, 10-chloro-7H-benzimidazo[2,1-a]benzo[de]Iso-quinolin-7-one]	approximately two	activate AhR	–	–	–	–	–	–
O=c1c2cccc3cccc(c32)c2nc3cc(Cl)ccc3n12 [11-Cl-BBQ, 11-chloro-7H-benzimidazo[2,1-a]benzo[de]Iso-quinolin-7-one]	approximately two	increased AhR reporter activity as compared to 10-Cl-BBQ alone	–	–	–	–	–	–
O=c1c2cccc3cccc(c32)c2nc3ccccc3n12 [analog 1, 7H-Benzimidazo[2,1-a]benzo[de]isoquinolin-7-one]	–	–	statistically different from vehicle	statistically different from vehicle	13.7 nM	13 fold	–	–
NN1C(=O)c2ccc3c(=O)n4c5ccc(Cl)cc5nc4c4ccc(c2c34)C1=O [analog 2, 2-Amino-10-chlorobenzimidazo[2,1-b]benzo[lmn][3,8]phenanthroline-1,3,6(2H)-trione]	–	–	–	–	–	did not induce reporter activity	inactive	–
O=c1c2ccc3ccc4cccc5cc(c2c3c45)c2nc3ccc(Cl)cc3n12 [analog 3, 11-Chloro-8H-benzimidazo[2,1-a]phenanthro[3,4,5-defg]isoquinolin-8-one]	–	–	–	–	77.3 nM	2 fold	–	10 fold
O=c1c2ccc(Cl)c3cccc(c32)c2nc3cc(Cl)ccc3n12 [analog 4, 4,11-Dichloro-7H-benzimidazo[2,1-a]benzo[de]isoquinolin-7-one]	–	–	statistically different from vehicle	statistically different from vehicle	5.2 nM	19 fold	–	–
O=C(O)c1ccc2c3c1cccc3c(=O)n1c3ccccc3nc21 [analog 5, 7-Oxo-7H-benzimidazo[2,1-a]benzo[de]isoquinoline-3-carboxylic acid]	–	–	–	–	45200 nM	did not induce reporter activity	–	1000 fold
